# Measured values published in article PMC5397059, “Design, synthesis and structure-activity relationship study of wollamide B; a new potential anti TB agent” (PLoS ONE, 2017).
# Where two headings read alike, the source gives them in different places.
# Settings: amide bond, 18-membered ring, HATU/HOBt/DIEA
compound,measurement,setting,value
CC[C@H](C)[C@@H]1NC(=O)[C@H](Cc2cn(C(=O)OC(C)(C)C)c3ccccc23)NC(=O)[C@@H](CCCNC(=O)OC(C)(C)C)NC(=O)[C@H](CC(=O)NC(c2ccccc2)(c2ccccc2)c2ccccc2)NC(=O)[C@H](C(C)C)NC(=O)[C@@H](CC(C)C)NC1=O [cyclo(Asn(Trt)-D-Orn(Boc)-Trp(Boc)-Ile-D-Leu-Val)],"ring closure, isolated yield",from H-Asn(Trt)-dOrn(Boc)-Trp(Boc)-Ile-dLeu-Val-OH,47%
CC(C)C[C@H]1NC(=O)[C@@H](Cc2ccc(Cl)cc2)NC(=O)[C@H](Cc2cn(C(=O)OC(C)(C)C)c3ccccc23)NC(=O)[C@@H](CCCNC(=O)OC(C)(C)C)NC(=O)[C@H](CC(=O)NC(c2ccccc2)(c2ccccc2)c2ccccc2)NC(=O)[C@H](C(C)C)NC1=O [cyclo(Asn(Trt)-D-Orn(Boc)-Trp(Boc)-D-Phe(4-Cl)-D-Leu-Val)],"ring closure, isolated yield",from H-Asn(Trt)-dOrn(Boc)-Trp(Boc)-dPhe(4-Cl)-dLeu-Val-OH,54%
CC(C)C[C@@H]1NC(=O)[C@H](Cc2cn(C(=O)OC(C)(C)C)c3ccccc23)NC(=O)[C@@H](CCCNC(=O)OC(C)(C)C)NC(=O)[C@H](CC(=O)NC(c2ccccc2)(c2ccccc2)c2ccccc2)NC(=O)[C@H](C(C)C)NC(=O)[C@@H](C)NC1=O [cyclo(Trp(Boc)-D-Orn(Boc)-Asn(Trt)-Val-D-Ala-Leu)],"ring closure, isolated yield",from H-dAla-Val-Asn(Trt)-dOrn(Boc)-Trp(Boc)-Leu-OH,64%
CC(C)C[C@@H]1NC(=O)[C@H](Cc2cn(C(=O)OC(C)(C)C)c3ccccc23)NC(=O)[C@@H](CCCNC(=O)OC(C)(C)C)NC(=O)[C@H](CC(=O)NC(c2ccccc2)(c2ccccc2)c2ccccc2)NC(=O)[C@H](C(C)C)N(C)C(=O)[C@@H](CC(C)C)NC1=O [cyclo(D-Leu-N-Me-Val-Asn(Trt)-D-Orn(Boc)-Trp(Boc)-Leu)],"ring closure, isolated yield",from H-dLeu-MeVal-Asn(Trt)-dOrn(Boc)-Trp(Boc)-Leu-OH,60%
CC[C@H](C)[C@@H]1NC(=O)[C@@H](Cc2ccc(Cl)cc2)NC(=O)[C@H](CC(C)C)NC(=O)[C@H](Cc2cn(C(=O)OC(C)(C)C)c3ccccc23)NC(=O)[C@@H](CCCNC(=O)OC(C)(C)C)NC(=O)[C@@H](CCCNC(=O)OC(C)(C)C)NC1=O [cyclo(D-Phe (4-Cl)-Ile-D-Orn(Boc)-D-Orn(Boc)-Trp(Boc)-Leu)],"ring closure, isolated yield",from H-dPhe(4-Cl)-Ile-dOrn(Boc)-dOrn(Boc)-Trp(Boc)-Leu-OH,55%
COc1ccc(C[C@@H]2NC(=O)[C@@H](CCCNC(=O)OC(C)(C)C)NC(=O)[C@H](CC(=O)NC(c3ccccc3)(c3ccccc3)c3ccccc3)NC(=O)[C@H](C(C)C)NC(=O)[C@@H](CC(C)C)NC(=O)[C@H](CC(C)C)NC2=O)cc1 [cyclo(D-Leu-Val-Asn(Trt)-D-Orn(Boc)-Phe(4-OMe)-Leu)],"ring closure, isolated yield",from H-dLeu-Val-Asn(Trt)-dOrn(Boc)-Phe(4-OMe)-Leu-OH,41%
CC[C@H](C)[C@@H]1NC(=O)[C@@H](CC(C)C)NC(=O)[C@H](CC(C)C)NC(=O)[C@H](Cc2cn(C(=O)OC(C)(C)C)c3ccccc23)NC(=O)[C@@H](CCCNC(=O)OC(C)(C)C)NC(=O)[C@H](CC(=O)NC(c2ccccc2)(c2ccccc2)c2ccccc2)NC1=O [cyclo (D-Leu-Ile-Asn(Trt)-D-Orn(Boc)-Trp(Boc)-Leu)],"ring closure, isolated yield",from H-dLeu-Ile-Asn(Trt)-dOrn(Boc)-Trp(Boc)-Leu-OH,52%
CC(C)C[C@H]1NC(=O)[C@H](CC(C)C)N(C)C(=O)[C@H](Cc2cn(C(=O)OC(C)(C)C)c3ccccc23)NC(=O)[C@@H](CCCNC(=O)OC(C)(C)C)NC(=O)[C@H](CC(=O)NC(c2ccccc2)(c2ccccc2)c2ccccc2)N(C)C(=O)[C@H](C(C)C)NC1=O [cyclo(Val-N-Me-Asn(Trt)-D-Orn(Boc)-Trp(Boc)-N-Me-Leu-D-Leu)],"ring closure, isolated yield",from H-Val-MeAsn(Trt)-dOrn(Boc)-Trp(Boc)-MeLeu-dLeu-OH,80%
CC(C)C[C@@H]1NC(=O)[C@H](Cc2cn(C(=O)OC(C)(C)C)c3ccccc23)NC(=O)[C@@H](CCCNC(=O)OC(C)(C)C)NC(=O)[C@H](CC(=O)NC(c2ccccc2)(c2ccccc2)c2ccccc2)NC(=O)[C@H](C)NC(=O)[C@@H](CC(C)C)NC1=O [cyclo(Trp(Boc)-D-Orn(Boc)-Asn(Trt)-Ala-D-Leu-Leu)],"ring closure, isolated yield",from H-dLeu-Ala-Asn(Trt)-dOrn(Boc)-Trp(Boc)-Leu-OH,56%
CC(C)C[C@@H]1NC(=O)[C@@H](CC(C)C)NC(=O)[C@H](C(C)C)NC(=O)[C@H](CC(=O)NC(c2ccccc2)(c2ccccc2)c2ccccc2)NC(=O)[C@@H](CCCNC(=O)OC(C)(C)C)NC(=O)[C@H](Cc2cn(C(=O)OC(C)(C)C)c3ccccc23)NC1=O [cyclo(Trp (Boc)-D-Orn (Boc)-Asn(Trt)-Val-D-Leu-Leu)],"ring closure, isolated yield","from H-Trp(Boc)-dOrn(Boc)-Asn(Trt)-Val-dLeu-Leu-OH, DMF, 1.0 mM",50%
CC[C@H](C)[C@@H]1NC(=O)[C@@H](CC(C)C)NC(=O)[C@H](CC(C)C)NC(=O)[C@H](Cc2cn(C(=O)OC(C)(C)C)c3ccccc23)NC(=O)[C@@H](CCCNC(=O)OC(C)(C)C)NC(=O)[C@H](COC(C)(C)C)NC1=O [cyclo(Trp(Boc)-Leu-D-Leu-Ile-Ser(tBu)-D-Orn(Boc))],"ring closure, isolated yield",from H-Trp(Boc)-Leu-dLeu-Ile-Ser(tBu)-dOrn(Boc)-OH,68%
CC(C)C[C@@H]1NC(=O)[C@H](Cc2cn(C(=O)OC(C)(C)C)c3ccccc23)NC(=O)[C@@H](CCCNC(=O)OC(C)(C)C)NC(=O)[C@H](CC(=O)NC(c2ccccc2)(c2ccccc2)c2ccccc2)N(C)C(=O)[C@H](C(C)C)NC(=O)[C@@H](CC(C)C)N(C)C1=O [cyclo(Trp(Boc)-Leu-N-Me-D-Leu-Val-N-Me-Asn(Trt)-D-Orn(Boc))],"ring closure, isolated yield",from H-Trp(Boc)-Leu-dMeLeu-Val-MeAsn(Trt)-dOrn(Boc)-OH,60%
CC(C)C[C@@H]1NC(=O)[C@H](Cc2cn(C(=O)OC(C)(C)C)c3ccccc23)NC(=O)[C@@H](CCCNC(=O)OC(C)(C)C)NC(=O)[C@@H](CCCNC(=O)OC(C)(C)C)NC(=O)[C@H](C(C)C)NC(=O)[C@@H](CC(C)C)NC1=O [cyclo(D-Leu-Val-D-Orn(Boc)-D-Orn(Boc)-Trp(Boc)-Leu)],"ring closure, isolated yield",from H-dLeu-Val-dOrn(Boc)-dOrn(Boc)-Trp(Boc)-Leu-OH,40%
CC(C)C[C@@H]1NC(=O)[C@H](Cc2cn(C(=O)OC(C)(C)C)c3ccccc23)NC(=O)[C@@H](CCCNC(=O)OC(C)(C)C)NC(=O)[C@H](CC(=O)NC(c2ccccc2)(c2ccccc2)c2ccccc2)NC(=O)[C@H](C(C)C)NC(=O)[C@@H](CC(C)C)NC1=O [cyclo (Trp (Boc)-D-Orn(Boc)-Asn(Trt)-Val-D-Leu-Leu)],"ring closure, isolated yield",from H-dLeu-Val-Asn(Trt)-dOrn(Boc)-Trp(Boc)-Leu-OH,68%
CC(C)C[C@@H]1NC(=O)[C@H](Cc2cn(C(=O)OC(C)(C)C)c3ccccc23)NC(=O)[C@@H](CCCNC(=O)OC(C)(C)C)NC(=O)[C@H](CC(=O)NC(c2ccccc2)(c2ccccc2)c2ccccc2)NC(=O)[C@H](C(C)C)NC(=O)[C@@H](Cc2ccc(Cl)cc2)NC1=O [cyclo(D-Phe(4-Cl)-Val-Asn(Trt)-D-Orn(Boc)-Trp(Boc)-Leu)],"ring closure, isolated yield",from H-dPhe(4-Cl)-Val-Asn(Trt)-dOrn(Boc)-Trp(Boc)-Leu-OH,53%
CC(C)C[C@@H]1NC(=O)[C@H](Cc2cn(C(=O)OC(C)(C)C)c3ccccc23)NC(=O)[C@@H](CCCNC(=O)OC(C)(C)C)NC(=O)[C@H](C)NC(=O)[C@H](C(C)C)NC(=O)[C@@H](CC(C)C)NC1=O [cyclo(Trp(Boc)-D-Orn(Boc)-Ala-Val-D-Leu-Leu)],"ring closure, isolated yield",from H-dLeu-Val-Ala-dOrn(Boc)-Trp(Boc)-Leu-OH,56%
CSCC[C@@H]1NC(=O)[C@@H](CC(C)C)NC(=O)[C@H](CC(C)C)NC(=O)[C@H](Cc2cn(C(=O)OC(C)(C)C)c3ccccc23)NC(=O)[C@@H](CCCNC(=O)OC(C)(C)C)NC(=O)[C@H](CC(=O)NC(c2ccccc2)(c2ccccc2)c2ccccc2)NC1=O [cyclo (D-Leu-Met-Asn(Trt)-D-Orn(Boc)-Trp(Boc)-Leu)],"ring closure, isolated yield",from H-dLeu-Met-Asn(Trt)-dOrn(Boc)-Trp(Boc)-Leu-OH,40%
CC(C)C[C@H]1NC(=O)[C@H](C)NC(=O)[C@H](Cc2cn(C(=O)OC(C)(C)C)c3ccccc23)NC(=O)[C@@H](CCCNC(=O)OC(C)(C)C)NC(=O)[C@H](CC(=O)NC(c2ccccc2)(c2ccccc2)c2ccccc2)NC(=O)[C@H](C(C)C)NC1=O [cyclo(Trp (Boc)-D-Orn(Boc)-Asn(Trt)-Val-D-Leu-Ala)],"ring closure, isolated yield",from H-dLeu-Val-Asn(Trt)-dOrn(Boc)-Trp(Boc)-Ala-OH,45%
cyclo(D-Phe(4-Cl)-D-Orn(Boc)-Asn(Trt)-Val-D-Leu-Leu),"ring closure, isolated yield",,43%
CC(C)C[C@@H]1NC(=O)[C@H](C)NC(=O)[C@@H](CCCNC(=O)OC(C)(C)C)NC(=O)[C@H](CC(=O)NC(c2ccccc2)(c2ccccc2)c2ccccc2)NC(=O)[C@H](C(C)C)NC(=O)[C@@H](CC(C)C)NC1=O [cyclo(Ala-D-Orn (Boc)-Asn(Trt)-Val-D-Leu-Leu)],"ring closure, isolated yield",from H-dLeu-Val-Asn(Trt)-dOrn(Boc)-Ala-Leu-OH,43%
